This series can be described thus: Kinetic release of DHT from PCL20-b-PEO44 micelles (dialysis method, PBS pH 7.4, 37° C.). The class given is physicochemical. The conditions noted are these: control solution (drug alone). Here is the method: To the dried micelles, 100 μL of phosphate buffer solution, PBS (pH 7.4) was added. To ensure that the micelles were well dispersed in PBS, the solutions were vortexed. The dispersed micelles were left to stand in a 37° C. warm room for 30 minutes. Once the micelle solution had reached 37° C., it was placed in a dialysis bag which was immersed in a large vial containing warmed PBS (10 mL PBS, pH=7.4, 37° C.). […] The aliquot was dispersed in 4 mL of scintillation cocktail and then counted. Following the removal of each 100 uL aliquot, a 100 uL aliquot of fresh PBS was added.
The dialysis method was used to study the release of DHT from two micelle solutions which differed in the amount of DHT that they contained. The concentration of the solutions studied were 8 mM and 40 mM.

Take `C[C@]12CCC(=O)C[C@@H]1CC[C@@H]1[C@@H]2CC[C@]2(C)[C@@H](O)CC[C@@H]12` [DHT, dihydrotestosterone]: the “time to complete release” value was determined as 3 h.

The values are drawn from patent US20030176406A1, “Polycaprolactone-b-poly (ethylene oxide) copolymer non-cross-linked micelles as a delivery vehicle for steroid” (McGill University, priority 1999, published 2003).
